A short description of the series: solvent given as SMILES.

The structures appear in SMILES notation. Where “and” joins values, the source holds several entries; their conditions need not be identical. Identical values can stand only once.

The molecule `Nc1cccc2c1C(=O)c1ccccc1-2` showed an absorption maximum (in C1CCCCC1) of 407 nm, an absorption maximum (in CC#N) of 420 nm, an absorption maximum (in CCO) of 431 nm and an absorption maximum (in c1ccccc1) of 416 nm.

In turn, `N#CC(C#N)=Cc1ccc(-c2ccc(N(c3ccccc3)c3ccccc3)cc2)o1` yielded an absorption maximum (in ClC(Cl)Cl) of 509 nm.

Molecule `COC(=O)/C(C#N)=c1\s/c(=c2/s/c(=C(/C#N)C(=O)OC)c3cc(-c4ccc(OC)cc4)sc23)c2sc(-c3ccc(OC)cc3)cc12` showed an absorption maximum (in Cc1ccccc1) of 628 nm.

`O=C1OC(=O)c2ccc(N(c3ccccc3)c3c4ccccc4cc4ccccc34)c3cccc1c23` gave an absorption maximum (in C1CCOC1) of 450 nm, an absorption maximum (in CCCCCC) of 440 nm, an absorption maximum (in ClCCl) of 462 nm and an absorption maximum (in c1ccccc1) of 450 nm.

As to `c1ccc2c(c1)nc1ccccn12`, where the note is “in CC#N”, the absorption maximum is on record as 344 nm.

Turning to `CC1(C)c2ccccc2-c2cc3c(cc21)N(c1ccc(-c2nc(-c4ccc(N5c6ccccc6C(c6ccccc6)(c6ccccc6)c6cc7c(cc65)C(C)(C)c5ccccc5-7)cc4)nc(-c4ccc(N5c6ccccc6C(c6ccccc6)(c6ccccc6)c6cc7c(cc65)C(C)(C)c5ccccc5-7)cc4)n2)cc1)c1ccccc1C3(c1ccccc1)c1ccccc1`, the absorption maximum (in Cc1ccccc1) is listed as 321 nm.

Turning to `COCCOCCOCCOCC(COCCOCCOCCOC)Oc1cc(/C=C/c2ccc(C=C3C(=O)c4ccccc4C3=O)cc2)c(OC(COCCOCCOCCOC)COCCOCCOCCOC)cc1/C=C/c1ccc(C=C2C(=O)c3ccccc3C2=O)cc1`, for the setting “in ClCCl”, the absorption maximum is recorded as 489 nm.

For the molecule `Nc1ccc2c(c1)C(=O)c1ccc(N)cc1C2=O`, the absorption maximum (in CC#N) is reported as 438 nm; the absorption maximum (in CC(C)O) is given as 484 nm; the absorption maximum (in CCO) worked out at 477 nm; the absorption maximum (in CCOC(C)=O) worked out at 433.4 nm; the absorption maximum (in CO) is recorded as 474 nm.

Consider `Cc1cc(=O)oc2cc(-c3cn(Cc4ccccc4)nn3)ccc12`, for which, under “in CCO”, the absorption maximum turned out to be 329 nm.

Where the note is “in C1CCCCC1”, `B1C=Cc2ccc3ccccc3c2N1` yielded an absorption maximum of 351 nm.

With `F[B-]1(F)n2c(-c3ccccc3)cc(-c3ccccc3)c2N=C2C(c3ccccc3)=CC(c3ccccc3)=[N+]21`, the absorption maximum reads like this: (in CC#N) 643 nm; (in ClC(Cl)Cl) 650 nm.

Turning to `O=c1oc2ccccc2cc1-c1ccc(-c2ccc(-c3cc4ccccc4oc3=O)cc2)cc1`, the absorption maximum (in ClCCl) is on record as 341 nm.

For the setting “in ClCCl”, `c1ccc2c(c1)c1ccccc1c1ncncc21` registered an absorption maximum of 346 nm.

In turn, `CCCCCCCCOc1cc(/C=C/c2cc[n+](Cc3ccc(C)cc3)cc2)c(OCCCCCCCC)cc1/C=C/c1cc[n+](Cc2ccc(C)cc2)cc1` yielded an absorption maximum (in ClCCl) of 490 nm.

In turn, `Cc1cccc2nc(-c3cc(=O)c(OCc4ccccc4)co3)c(NC3CCCCC3)n12` had an absorption maximum (in ClCCl) of 352 nm.

On to `Cc1ccc2c(c1)C(=O)c1ccncc1-2`, for which the absorption maximum (in CC#N) is 408.95 nm and the absorption maximum (in CCCCCC) came to 408.95 nm.

For the molecule `C1=CN2C[n+]3cccc(OCc4ccccc4)c3N=C2C(OCc2ccccc2)=C1`, the absorption maximum (in CO) amounted to 450 nm.

As for `O=C(c1ccncc1)c1ccc(-n2c3ccc(-n4c5ccccc5c5ccccc54)cc3c3cc(-n4c5ccccc5c5ccccc54)ccc32)cc1`, the absorption maximum turned out to be 341.83 nm (in C1CCOC1), 360.08 nm (in Cc1ccccc1) and 341.83 nm (in ClCCl).

Under “in ClC(Cl)Cl”, `COc1ccc(-c2cc3c4c(c2)CCc2cc(-c5ccc(OC)cc5)cc(c2-4)CC3)cc1` showed an absorption maximum of 332.1 nm.

For the setting “in Cc1ccccc1”, `Cc1ccc(-n2c(-c3cccc4cc[nH]c34)nc3c4ccccc4c4ccccc4c32)cc1` registered an absorption maximum of 354 nm.

As for `CCOC(=O)C1=C(N)n2c(=O)c3ccccc3c(=O)n2C1c1ccccc1` (configuration not stated), the absorption maximum (in CS(C)=O) was 364 nm.

For `CC1(C)CC(=O)C2=C(C1)Oc1ccc3ccccc3c1C2c1ccccn1` (configuration not stated), the absorption maximum (in C1CCOC1) is given as 275 nm; the absorption maximum (in C1COCCO1) came out at 274 nm; the absorption maximum (in CC#N) is reported as 275 nm; the absorption maximum (in CCCCCCC) turned out to be 274 nm; the absorption maximum (in CCO) is 274 nm; the absorption maximum (in CO) is listed as 275 nm. The molecule further yielded an absorption maximum (in O) of 264 nm.

For `Clc1cc(Cl)c(B2c3ccccc3Nc3ccccc32)c(Cl)c1`, the absorption maximum (in ClCCl) came out at 396 nm.

Take `Cc1cccc2nc3[nH]c(=O)[nH]c(=O)c3nc12`: the absorption maximum (in CC#N) was 380 nm.

In turn, `COc1ccc2ccccc2c1C1=CC(c2ccccc2)=C(c2ccccc2)C1` displayed an absorption maximum (in ClCCl) of 340 nm.

As to `Cc1nc(-c2ccc(-n3c4ccccc4c4ccccc43)cc2)cc(-c2ccc(-n3c4ccccc4c4ccccc43)cc2)n1`, the absorption maximum (in C1CCOC1) is given as 343 nm, the absorption maximum (in CN(C)C=O) came out at 343 nm, the absorption maximum (in Cc1ccccc1) is 355 nm and the absorption maximum (in ClC(Cl)Cl) was determined as 343 nm.

As to `CCOC(=O)COc1ccc(/C=C/C2=C3c4ccccc4C(c4ccc[nH]4)=[N+]3[B-](F)(F)n3ccc(C)c32)cc1`, the absorption maximum runs as follows: (in C1CCOC1) 586 nm; (in CC#N) 577 nm; (in CCCCCC) 587 nm; (in CO) 580 nm; (in Cc1ccccc1) 592 nm; (in ClCCl) 585 nm.

In the case of `COc1nc(Nc2ccc3c4c(cccc24)C(=O)c2ccccc2-3)nc(OC)n1`, the absorption maximum is, setting by setting: (in CC#N) 413.91 nm; (in CC(C)O) 421.94 nm; (in CCCCOCCCC) 421.94 nm; (in CCOC(C)=O) 418.94 nm; (in CO) 419.99 nm; (in Cc1ccccc1) 426.99 nm.

For `C=CCNc1ccc2c(ccc3oc4cc(=[N+](C)C)ccc-4nc32)c1`, the absorption maximum is, setting by setting: (in CC#N) 597 nm; (in CCO) 601 nm; (in ClCCl) 610 nm; (in O) 579 nm.

On to `CCc1c(C)c2n(c1C)[B-](F)(F)[N+]1=C(c3ccc[nH]3)c3ccccc3C1=C2`, for which the absorption maximum was 613 nm (in C1CCOC1); 608 nm (in CC#N); 614 nm (in CCCCCC); 609 nm (in CO); 620 nm (in Cc1ccccc1); 616 nm (in ClCCl).

With `Clc1ccc(/C=C(\c2ccccc2)c2nc3ccccc3s2)cc1`, the absorption maximum (in C1CCCCC1) worked out at 340 nm and the absorption maximum (in CO) is 340 nm.

`CCC(C)(C)c1ccc(-c2ccc(-c3ccc(C(C)(C)CC)cc3)cc2)cc1` showed an absorption maximum (in C1COCCO1) of 289 nm.

For `CC(C)(C)Nc1cc2sc3cc(NC(C)(C)C)c(F)cc3c(=O)c2cc1F`, the absorption maximum (in CCO) turned out to be 373 nm.

Take `CC1=CC(C)=[N+]2C1=C(c1ccc(N(C)C)cc1)c1c(C)cc(C)n1[B-]2(F)F`: the absorption maximum was 499 nm (in C1CCOC1); 496 nm (in CC#N); 496 nm (in CC(=O)C(C)(C)C); 496 nm (in CC(C)=O); 500 nm (in CCCCCC); 498 nm (in CCOC(C)=O). Also, under “in CO”, the absorption maximum is 500 nm and 492 nm.

On to `Cc1cc(=O)c2ccc(N)cc2o1`, for which the absorption maximum by setting is: (in C1CCOC1) 323 nm; (in C1COCCO1) 314 nm; (in CC#N) 315 nm; (in CC(C)O) 327 nm; (in CCCCO) 329 nm; (in CCCO) 329 nm. For the same molecule, the absorption maximum is recorded as 315 nm (in CCOC(C)=O); 325 nm (in CN(C)C=O); 327 nm (in CO); 326 nm (in CS(C)=O); 311 nm (in ClC(Cl)Cl); 322 nm (in O).

On to `COc1ccc(-c2ncccn2)cc1`, for which the absorption maximum (in ClCCl) turned out to be 283 nm.

`CN(C)c1ccc2nc3c(cc2c1)c(-c1ccccc1)nn3-c1ccccc1` gave an absorption maximum (in C1CCCCC1) of 439.56 nm; an absorption maximum (in C1CCOC1) of 450.05 nm; an absorption maximum (in CC#N) of 449.24 nm; an absorption maximum (in CC(C)=O) of 450.45 nm; an absorption maximum (in CCCCCl) of 448.43 nm; an absorption maximum (in CCCCOCCCC) of 444.64 nm. This molecule also returned an absorption maximum (in CN(C)C=O) of 452.69 nm.

In turn, `CN(C)c1ccc(C#Cc2cc3ccccc3oc2=O)cc1` displayed an absorption maximum (in ClCCl) of 406 nm.

`N#Cc1ccc(/C=C2\C=C(c3ccccc3)NC2=O)cc1` yielded an absorption maximum (in C1COCCO1) of 438 nm.

In turn, `CC1(C)CC(=O)c2ccccc2N1` gave an absorption maximum (in CCO) of 383 nm.

As to `CC[C@H](C)COc1ccc(C2=C3C(C)=C(c4ccc5ccc6cccc7ccc4c5c67)C(C)=[N+]3[B-](F)(F)n3c(C)c(-c4ccc5ccc6cccc7ccc4c5c67)c(C)c32)cc1`, the absorption maximum (in ClCCl) is reported as 530 nm.

The molecule `CCOC(=O)c1c(-c2cc3ccccc3oc2=O)nn(-c2ccc(Br)cc2)c1C(=O)OCC` returned an absorption maximum (in ClCCl) of 323 nm.

In turn, `CC[n+]1c(-c2ccccc2)c2cc(NC(N)=O)ccc2c2ccc(NC(N)=O)cc21` displayed an absorption maximum (in O) of 434 nm.

Consider `CCCCCCCCCCCCOc1cc2cc(N(C)C)ccc2cc1C#N`, for which the absorption maximum was 361 nm (in C1CCOC1); 368 nm (in CC#N); 336 nm (in CCCCCC); 368 nm (in CCO); 361 nm (in CCOC(C)=O); 369 nm (in CS(C)=O). Besides, the absorption maximum came out at 368 nm (in ClCCl) and 368 nm (in O).

Turning to `CN(C)c1ccc2c(c1)C(=O)c1ccccc1-2`, the absorption maximum is given as 484 nm (in C1CCCCC1), 510 nm (in CC#N), 509 nm (in CCO) and 507 nm (in c1ccccc1).

Take `CC(C)(C)c1ccc(-c2c3c(c(-c4ccc(C(C)(C)C)cc4)c4cc5ccccc5cc24)Cc2c(c(-c4ccc(C(C)(C)C)cc4)c4cc5ccccc5cc4c2-c2ccc(C(C)(C)C)cc2)C3)cc1`: the absorption maximum (in ClCCl) worked out at 393 nm.

Where the note is “in C1CCOC1”, `c1cc2ccc1-c1ccc(cc1)-c1ccc(s1)-c1ccc(cc1)-c1ccc(cc1)-c1ccc(s1)-c1ccc(cc1)-c1ccc(cc1)-c1ccc-2s1` returned an absorption maximum of 346 nm.

Values taken from the Deep4Chem optical property database.
